In the data set the test system is CCRIS mutagenicity, Ames/micronucleus/aberration tests. Kind of data set: CCRIS mutagenicity studies.
The mark [1] stands for this setting: Test System: AMES SALMONELLA TYPHIMURIUM, Strain/Indicator: TA98, Metabolic Activation: NONE, Method: PREINCUBATION
Setting [2] is: Test System: AMES SALMONELLA TYPHIMURIUM, Strain/Indicator: TA100, Metabolic Activation: NONE, Method: PREINCUBATION
[3] abbreviates: Test System: AMES SALMONELLA TYPHIMURIUM, Strain/Indicator: TA1535, Metabolic Activation: NONE, Method: PREINCUBATION
Setting [4] is: Test System: AMES SALMONELLA TYPHIMURIUM, Strain/Indicator: TA1537, Metabolic Activation: NONE, Method: PREINCUBATION
Where [5] appears, read: Test System: AMES SALMONELLA TYPHIMURIUM, Strain/Indicator: TA98, Metabolic Activation: RAT, LIVER, S-9, AROCLOR 1254, Method: PREINCUBATION
Where [6] appears, read: Test System: AMES SALMONELLA TYPHIMURIUM, Strain/Indicator: TA100, Metabolic Activation: RAT, LIVER, S-9, AROCLOR 1254, Method: PREINCUBATION
The mark [7] stands for this setting: Test System: AMES SALMONELLA TYPHIMURIUM, Strain/Indicator: TA1535, Metabolic Activation: RAT, LIVER, S-9, AROCLOR 1254, Method: PREINCUBATION
[8] abbreviates: Test System: AMES SALMONELLA TYPHIMURIUM, Strain/Indicator: TA1537, Metabolic Activation: RAT, LIVER, S-9, AROCLOR 1254, Method: PREINCUBATION

The results in this text go back to PubChem BioAssay AID1259407 (Chemical Carcinogenesis Research Information System (CCRIS), 2018).

The source made the active and inactive calls. No rule for the calls is given here.

As to `O=S(=O)(O)c1ccc2cc(Oc3ccc4cc(S(=O)(=O)O)ccc4c3)ccc2c1`, the mutagenic call was “inactive; negative” under setting [1]; “inactive; negative” (Test System: AMES SALMONELLA TYPHIMURIUM, Strain/Indicator: TA98, Metabolic Activation: RAT, LIVER, S-9, PHENOBARBITAL, Method: PREINCUBATION); “inactive; negative” under setting [2]; “inactive; negative” (Test System: AMES SALMONELLA TYPHIMURIUM, Strain/Indicator: TA100, Metabolic Activation: RAT, LIVER, S-9, PHENOBARBITAL, Method: PREINCUBATION).

`CN(C)C`: the mutagenic call runs as follows: (Test System: AMES SALMONELLA TYPHIMURIUM, Strain/Indicator: TA98, Metabolic Activation: HAMSTER, LIVER, S-9, AROCLOR 1254 (10%), Method: PREINCUBATION) “inactive; negative”; under setting [1], “inactive; negative”; (Test System: AMES SALMONELLA TYPHIMURIUM, Strain/Indicator: TA98, Metabolic Activation: RAT, LIVER, S-9, AROCLOR 1254 (10%), Method: PREINCUBATION) “inactive; negative”; (Test System: AMES SALMONELLA TYPHIMURIUM, Strain/Indicator: TA100, Metabolic Activation: HAMSTER, LIVER, S-9, AROCLOR 1254 (10%), Method: PREINCUBATION) “inactive; negative”; under setting [2], “inactive; negative”; (Test System: AMES SALMONELLA TYPHIMURIUM, Strain/Indicator: TA100, Metabolic Activation: RAT, LIVER, S-9, AROCLOR 1254 (10%), Method: PREINCUBATION) “inactive; negative”. Further, the mutagenic call is “inactive; negative” (Test System: AMES SALMONELLA TYPHIMURIUM, Strain/Indicator: TA1535, Metabolic Activation: HAMSTER, LIVER, S-9, AROCLOR 1254 (10%), Method: PREINCUBATION); “inactive; negative” under setting [3]; “inactive; negative” (Test System: AMES SALMONELLA TYPHIMURIUM, Strain/Indicator: TA1535, Metabolic Activation: RAT, LIVER, S-9, AROCLOR 1254 (10%), Method: PREINCUBATION); “inactive; negative” (Test System: AMES SALMONELLA TYPHIMURIUM, Strain/Indicator: TA1537, Metabolic Activation: HAMSTER, LIVER, S-9, AROCLOR 1254 (10%), Method: PREINCUBATION); “inactive; negative” under setting [4]; “inactive; negative” (Test System: AMES SALMONELLA TYPHIMURIUM, Strain/Indicator: TA1537, Metabolic Activation: RAT, LIVER, S-9, AROCLOR 1254 (10%), Method: PREINCUBATION).

For the compound `O=c1[nH]c(=O)n([C@H]2C[C@H](O)[C@@H](CO)O2)cc1I`, the mutagenic call is “inactive; negative” (Test System: AMES SALMONELLA TYPHIMURIUM, Strain/Indicator: TA97, Metabolic Activation: NONE, Method: PREINCUBATION); “inactive; negative” (Test System: AMES SALMONELLA TYPHIMURIUM, Strain/Indicator: TA97, Metabolic Activation: RAT, LIVER, S-9, AROCLOR 1254, Method: PREINCUBATION); “inactive; negative” under setting [1]; “inactive; negative” under setting [5]; “inactive; negative” under setting [2]; “inactive; negative” under setting [6]. Further, the mutagenic call (Test System: AMES SALMONELLA TYPHIMURIUM, Strain/Indicator: TA102, Metabolic Activation: NONE, Method: PREINCUBATION) was “inactive; negative”; the mutagenic call (Test System: AMES SALMONELLA TYPHIMURIUM, Strain/Indicator: TA102, Metabolic Activation: RAT, LIVER, S-9, AROCLOR 1254, Method: PREINCUBATION) was “inactive; negative”; the mutagenic call (Test System: AMES SALMONELLA TYPHIMURIUM, Strain/Indicator: TA104, Metabolic Activation: NONE, Method: PREINCUBATION) is “inactive; negative”; the mutagenic call (Test System: AMES SALMONELLA TYPHIMURIUM, Strain/Indicator: TA104, Metabolic Activation: RAT, LIVER, S-9, AROCLOR 1254, Method: PREINCUBATION) was “inactive; negative”; the mutagenic call under setting [3] was “inactive; negative”; the mutagenic call under setting [7] was “inactive; negative”. The mutagenic call runs as follows: under setting [4], “inactive; negative”; under setting [8], “inactive; negative”; (Test System: AMES SALMONELLA TYPHIMURIUM, Strain/Indicator: TA1538, Metabolic Activation: NONE, Method: PREINCUBATION) “inactive; negative”; (Test System: AMES SALMONELLA TYPHIMURIUM, Strain/Indicator: TA1538, Metabolic Activation: RAT, LIVER, S-9, AROCLOR 1254, Method: PREINCUBATION) “inactive; negative”; (Test System: CHINESE HAMSTER V-79, Strain/Indicator: V-79/8-AZAGUANINE, Metabolic Activation: NONE) “active; positive”; (Test System: UDS RODENT HEPATOCYTES, Strain/Indicator: THY INCORP, Metabolic Activation: NONE) “inactive; negative”.

As to `[N-]=[N+]=NC[C@@H](O)c1ccccc1`, the mutagenic call (Test System: AMES SALMONELLA TYPHIMURIUM, Strain/Indicator: TA100, Metabolic Activation: RAT, LIVER, S-9, PCB, Method: PREINCUBATION) is “active; positive”.

Consider `OCCNCCO`, for which the mutagenic call runs as follows: (End Point: IN VITRO CHROMOSOMAL ABERRATIONS, Test System: CHO CELLS, Metabolic Activation: NONE) “inactive; negative”; (End Point: IN VITRO CHROMOSOMAL ABERRATIONS, Test System: CHO CELLS, Metabolic Activation: RAT, LIVER, S-9, AROCLOR 1254) “inactive; negative; weak response at highest dose”; (Test System: AMES SALMONELLA TYPHIMURIUM, Strain/Indicator: TA98, Metabolic Activation: HAMSTER, LIVER, S-9, AROCLOR 1254, Method: PREINCUBATION) “inactive; negative”; under setting [1], “inactive; negative”; under setting [5], “inactive; negative”; (Test System: AMES SALMONELLA TYPHIMURIUM, Strain/Indicator: TA100, Metabolic Activation: HAMSTER, LIVER, S-9, AROCLOR 1254, Method: PREINCUBATION) “inactive; negative”. Besides, the mutagenic call runs as follows: under setting [2], “inactive; negative”; under setting [6], “inactive; negative”; (Test System: AMES SALMONELLA TYPHIMURIUM, Strain/Indicator: TA1535, Metabolic Activation: HAMSTER, LIVER, S-9, AROCLOR 1254, Method: PREINCUBATION) “inactive; negative”; under setting [3], “inactive; negative”; under setting [7], “inactive; negative”; (Test System: AMES SALMONELLA TYPHIMURIUM, Strain/Indicator: TA1537, Metabolic Activation: HAMSTER, LIVER, S-9, AROCLOR 1254, Method: PREINCUBATION) “inactive; negative”. The mutagenic call runs as follows: under setting [4], “inactive; negative”; under setting [8], “inactive; negative”.

Regarding `COC(=O)c1cc2c(c3c1c([N+](=O)[O-])cc1c(OC)cccc13)OCO2`, the mutagenic call (Test System: AMES SALMONELLA TYPHIMURIUM, Strain/Indicator: TA98, Metabolic Activation: NONE, Method: STANDARD PLATE) is “active; positive”; the mutagenic call (Test System: AMES SALMONELLA TYPHIMURIUM, Strain/Indicator: TA100, Metabolic Activation: NONE, Method: STANDARD PLATE) was “active; positive”; the mutagenic call (Test System: AMES SALMONELLA TYPHIMURIUM, Strain/Indicator: TA102, Metabolic Activation: NONE, Method: STANDARD PLATE) was “inactive; negative”; the mutagenic call (Test System: AMES SALMONELLA TYPHIMURIUM, Strain/Indicator: TA1537, Metabolic Activation: NONE, Method: STANDARD PLATE) was “active; positive”; the mutagenic call (Test System: AMES SALMONELLA TYPHIMURIUM, Strain/Indicator: TM677/8-AZAGUANINE, Metabolic Activation: NONE, Method: SUSPENSION/PLATE) is “inactive; negative”.
